Literature values in patent publication US4513029A, “Sea water antifouling method” (priority 1982, dated 1985).

System: mice
Details: oral administration to mice (after 24 hours)

SMILES | LD50
CC(=O)[O-].c1cc[c]([Sn+]([c]2ccccc2)[c]2ccccc2)cc1 [tripenyltin acetate] | not more than 1,000 mg/kg
[OH][Sn]([c]1ccccc1)([c]1ccccc1)[c]1ccccc1 [triphenyltin hydroxide] | not more than 1,000 mg/kg
[Cl][Sn]([c]1ccccc1)([c]1ccccc1)[c]1ccccc1 [triphenyltin chloride] | not more than 1,000 mg/kg
[Cu].[O]=[Cu] [copper suboxide] | not more than 1,000 mg/kg
